Some test systems named below: UACC-257 melanoma; HOP-62 NSCLC; SK-OV-3 ovarian; SR leukemia; A549 NSCLC; SNB-19 CNS; MOLT-4 leukemia; NCI-H23 lung; IGROV1 ovarian; HT29 colon.
Common to all, as to test: DTP human tumour cell line panel, 48 h

“And” between values parts separate entries of the source, which are not always exact repeats. Equal values may be shown once.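 Five compound concentrations were applied to cells in 96-well plates for 48 hours; endpoints were derived by simple linear interpolation of the resulting dose-response curve. GI50 marks 50% less growth. TGI: total growth inhibition.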

With `CNCCOC(=O)/C=C1\CC[C@H]2[C@@H]([C@@H](O)C(=O)[C@@H]3[C@]2(C)CC[C@H](O)[C@]3(C)C(=O)OC)[C@H]1C`, the GI50 with UACC-257 melanoma is 479 nM; with HOP-62 NSCLC, 241 nM; with SK-OV-3 ovarian it was 392 nM; in the test with SR leukemia, 244 nM; in the test with A549 NSCLC it was 165 nM; with SNB-19 CNS it was 668 nM. Further, the GI50 was 212 nM with MOLT-4 leukemia, 245 nM with NCI-H23 lung, 438 nM in the test on IGROV1 ovarian and 443 nM in the test with HT29 colon. The TGI is 1730 nM in the test with UACC-257 melanoma; 595 nM in the test on HOP-62 NSCLC; 1360 nM in the test on SK-OV-3 ovarian; 626 nM in the test with SR leukemia; 314 nM in the test with A549 NSCLC; 1990 nM with SNB-19 CNS. Also, the TGI in the test with MOLT-4 leukemia came out at 543 nM; in the test with NCI-H23 lung, 644 nM; in the test with IGROV1 ovarian it was 2230 nM; in the test with HT29 colon, 1580 nM.

`O=C(Nc1cc(C(F)(F)F)cc(C(F)(F)F)c1)c1cc(Cl)ccc1O`: the GI50 in the test with UACC-257 melanoma was 196 nM and 194 nM; in the test on HOP-62 NSCLC, 260 nM and 355 nM; with SK-OV-3 ovarian, 185 nM and 181 nM; in the test on SR leukemia, 218 nM and 228 nM; with A549 NSCLC, 293 nM and 319 nM; in the test with SNB-19 CNS, 291 nM and 233 nM. The GI50 in the test with MOLT-4 leukemia was 269 nM and 332 nM; with NCI-H23 lung, 218 nM and 263 nM; in the test on IGROV1 ovarian it was 271 nM and 357 nM; in the test with HT29 colon, 339 nM and 401 nM. In addition, the TGI in the test on UACC-257 melanoma was 750 nM and 1210 nM; with HOP-62 NSCLC, 1200 nM and 4380 nM; in the test with SK-OV-3 ovarian it was 642 nM and 947 nM; with A549 NSCLC, > 4320 nM and 12800 nM; with SNB-19 CNS, > 10000 nM and 12000 nM; with MOLT-4 leukemia, 845 nM and 2690 nM. Also, the TGI was 754 nM and 1340 nM in the test on NCI-H23 lung; > 2340 nM and 11900 nM in the test with IGROV1 ovarian; > 10000 nM and 12000 nM in the test on HT29 colon.

Regarding `C=CCC1(c2ccc(OC)cc2)C=CC(=O)CC1` (centres undefined), the TGI with UACC-257 melanoma, with HOP-62 NSCLC, in the test on SK-OV-3 ovarian, in the test with SR leukemia, in the test with A549 NSCLC and in the test with SNB-19 CNS was > 100000 nM each time. Besides, the TGI in the test with MOLT-4 leukemia, in the test with NCI-H23 lung, in the test with IGROV1 ovarian and in the test with HT29 colon was > 100000 nM in each case.

Turning to `Cc1ccccc1C(=O)c1cc(O)ccc1O`, the TGI with UACC-257 melanoma, in the test with HOP-62 NSCLC, in the test on SK-OV-3 ovarian, with SR leukemia, with A549 NSCLC and in the test on SNB-19 CNS was > 100000 nM in each case. Moreover, the TGI with MOLT-4 leukemia, with NCI-H23 lung, in the test with IGROV1 ovarian and in the test on HT29 colon was > 100000 nM each time.

With `COc1c(O)c2c(=O)cc3c4c5c(cc(=O)c6c(O)c(OC)c(CC(C)O)c(c(c1CC(C)O)c24)c65)OCO3` (centres undefined), the TGI with UACC-257 melanoma was determined as 2780 nM; in the test with HOP-62 NSCLC it was 4010 nM; in the test on SK-OV-3 ovarian, 20400 nM; with SR leukemia it was 9410 nM; in the test on A549 NSCLC, 8390 nM; with SNB-19 CNS, 7530 nM. Also, the TGI came out at 4440 nM in the test on MOLT-4 leukemia, 3100 nM in the test with NCI-H23 lung, 4630 nM in the test with IGROV1 ovarian and 8580 nM in the test on HT29 colon.

As to `CCOC(=O)Nc1cc2c(c(N)n1)N=C(c1ccccc1)CO2`, the GI50 is 17500 nM in the test on UACC-257 melanoma; 450 nM with HOP-62 NSCLC; 289 nM in the test on SK-OV-3 ovarian; 35 nM in the test with SR leukemia; 167 nM in the test with A549 NSCLC; 414 nM in the test with SNB-19 CNS. Further, the GI50 is 105 nM in the test on MOLT-4 leukemia, 569 nM in the test with NCI-H23 lung, 148 nM in the test on IGROV1 ovarian and 47 nM with HT29 colon. Moreover, the TGI in the test with UACC-257 melanoma was 99600 nM; in the test on HOP-62 NSCLC it was 24300 nM; with SK-OV-3 ovarian, 9400 nM; in the test on SR leukemia, 10100 nM; in the test with A549 NSCLC, 13800 nM; in the test with SNB-19 CNS, 25000 nM. For the same compound, the TGI with MOLT-4 leukemia was > 40700 nM; in the test with NCI-H23 lung it was 21400 nM; with IGROV1 ovarian, 11900 nM; in the test on HT29 colon, 10900 nM.

Regarding `CN(C)C1CCN(C(=O)c2ccc(NC(=O)Nc3ccc(-c4nc(N5CCOCC5)c5cccn5n4)cc3)cc2)CC1`, the GI50 in the test with UACC-257 melanoma was 204 nM; in the test on HOP-62 NSCLC it was 57.3 nM; in the test on SK-OV-3 ovarian, 37.7 nM; with SR leukemia it was 56.2 nM; in the test on A549 NSCLC it was 64.9 nM; in the test with SNB-19 CNS, 40.3 nM. The GI50 in the test on MOLT-4 leukemia is 45.7 nM; in the test with NCI-H23 lung it was 102 nM; with IGROV1 ovarian, 30.2 nM; in the test with HT29 colon it was 55.8 nM. Also, the TGI in the test on UACC-257 melanoma is 729 nM; with HOP-62 NSCLC it was 2820 nM; with SK-OV-3 ovarian, 252 nM; in the test with SR leukemia, > 54000 nM; with A549 NSCLC, 12600 nM; with SNB-19 CNS, 6220 nM. Besides, the TGI in the test with MOLT-4 leukemia is 2520 nM; in the test on NCI-H23 lung it was 17700 nM; in the test with IGROV1 ovarian, 211 nM; in the test on HT29 colon it was 3780 nM.

For `Cc1nnc(Nc2ccc(NC(=O)Nc3ccc(Cl)cc3)cc2)c2ccccc12`, the GI50 in the test on UACC-257 melanoma was 2390 nM; in the test on HOP-62 NSCLC, 1810 nM; in the test on SK-OV-3 ovarian, 2610 nM; with SR leukemia, 2560 nM; with A549 NSCLC, 3240 nM; in the test with SNB-19 CNS, 2770 nM. Moreover, the GI50 is 2360 nM in the test with MOLT-4 leukemia, 2380 nM in the test with NCI-H23 lung, 3980 nM in the test on IGROV1 ovarian and 1780 nM in the test with HT29 colon. The TGI worked out at 5300 nM with UACC-257 melanoma; 3700 nM in the test with HOP-62 NSCLC; 6590 nM in the test on SK-OV-3 ovarian; 9550 nM in the test with SR leukemia; 8590 nM in the test with A549 NSCLC; 8720 nM with SNB-19 CNS. Besides, the TGI in the test with MOLT-4 leukemia is 6000 nM; with NCI-H23 lung it was 6310 nM; with IGROV1 ovarian, 19500 nM; in the test on HT29 colon, 3670 nM.

The record behind these values is PubChem BioAssay (NCI).
